Tests used:
[1] = system: isolated right auricle of a guinea pig; assay: Chronotropic action (bradycardizing effect) on the isolated right auricle of a guinea pig; details: 1·10^-4 g·ml^-1, 30 minutes contact, % reduction of beats/minute; for inhibition at 100 µg/mL: Cavia porcellus, 0.5 h
Description: Guinea pigs of either sex were killed with a blow and bled, the right auricle was swiftly removed and immediately immersed in a Krebs-Henseleit solution, thermostatically controlled to 36° C.±0.5° C. and aerated with a mixture of O2 and CO2 (95% and 5%). The preparation was connected to an isometric myograph (F-50 Narco) then to a recording system (Physiograpg M-K III--Narco).
A 60 minute delay was required for ensuring chronotropic action stability.
The compounds (I) of the invention and the pharmaceutically acceptable salts thereof were added to the nutritive medium in a concentration of 1.10^-4 g.ml^-1 and left in contact with the auricle for 30 minutes. The action was evaluated by the percentage reduction of the number of beats/minute (beat/min.) before administration of the compound under test.

[2] = Toxicity by a single intravenous administration in mice; format: in vivo; details: mouse, in vivo; single intravenous administration, mice; Litchfield and Wilcoxon; read-out: LD50 (95% confidence limit)
Description: (§1) The toxicity of the compounds of the invention was also tested. It concerns more precisely the test of toxicity by a single administration made for all the compounds on male mice, E.O.P.S. of SWISS strain (5 animals per batch).
(§2) The compounds under test were solubilized in a […] aqueous solution of NaCl, at various concentrations and the solutions obtaoned were injected intravenously at the rate of 10 ml.kg^-1 of body weight.
(§3) The administration was made in 20 seconds, the animals being kept under clinical observation for 3 hours after administration, then daily for 7 days.

[3] = system: male mice, E.O.P.S. of SWISS strain; assay: as above; format: in vivo; details: single i.v. administration; symptoms observed at the dose where there was no mortality
Description: as §1, §2, §3

[4] = molecular target: T1, isolated left auricle of a guinea pig (cardiac inotropic function β1) (Cavia porcellus, UniProt H0W3H1); assay: Positive inotropic effect: contractile force of the isolated left auricle of a guinea pig
T1 construct: the left auricle being swiftly removed and immersed immediately in a Krebs-Henseleit solution; from tissue; host or cells: isolated left auricle of guinea pigs of either sex
Source text: The in vitro study was made on the contractile force of the isolated left auricle of a guinea pig. The technique used was that of P. LUMBEY et Coll. […] It allowed the cardiac inotropic function β1 to be studied.
The preparation was connected to an isometric myograph (F-50 Narco), then to a recording system (Physiograph M-K III Narco). For the whole duration of the test the auricle was electrically stimulated by a neurostimulator (Equipement Industriel II) at the frequence of 90 to 120 beats/min.

[5] = system: cardiac hemodynamics in anaesthetized dogs; assay: Cardiac hemodynamics in dogs anaesthetized with Nembutal, open thorax; format: in vivo, dog
Description: (§4) The positive inotropic effect of compounds (I) of the invention and the pharmaceutically acceptable salts thereof were further tested on the cardiac dynamics of an anaesthetized animal and on a wakeful chronically implanted animal.
(§5) a. Test on a dog anaesthetized with Nembutal
(§6) Two test protocols were carried out, one on a dog with open thorax and the other on a dog with closed thorax. The left intraventricular pressure (PIVG) and aortic pressure (supra sigmoid) (PAO) were measured with high fidelity micro-sensors (Millar 5F), the first derivative of the left ventricular pressure (dP/dt) was recorded as well as the electrocardiogram. The instantaneous alveolar PCO2 was continuously measured. Finally, different blood flow rates were measured, namely the femoral and carotid flow rates in the animals with closed thorax and the aortic and coronary flow rates in those on which a thoracotomy had been performed. These different rates were measured by the electro-magnetic method.

[6] = system: cardiac hemodynamics of anaesthetized dogs; assay: Cardiac hemodynamics in dogs anaesthetized with Nembutal, closed thorax; format: in vivo, dog
Description: as §4, §5, §6
An analysis of the dose/effect relation on three dogs (see results shown in table V below) confirmed the results obtained on dogs with open thorax for compound 1a.

[7] = system: cardiac hemodynamics in chronically implanted wakeful dogs; assay: Cardiac hemodynamics in chronically implanted wakeful dogs; format: in vivo, dog
Description: as §4
b. Test on chronically implanted wakeful dogs
The compounds were tested orally and intravenously on dogs previously implanted with a pressure probe placed in the left ventricle (Janssen) and a Doppler rate sensor placed on the aorta, the tests being carried out at the minium 8 days after implantation.

[8] = 0.5 mg·kg^-1 i.v., closed thorax

T1 sequence (H0W3H1 1-470): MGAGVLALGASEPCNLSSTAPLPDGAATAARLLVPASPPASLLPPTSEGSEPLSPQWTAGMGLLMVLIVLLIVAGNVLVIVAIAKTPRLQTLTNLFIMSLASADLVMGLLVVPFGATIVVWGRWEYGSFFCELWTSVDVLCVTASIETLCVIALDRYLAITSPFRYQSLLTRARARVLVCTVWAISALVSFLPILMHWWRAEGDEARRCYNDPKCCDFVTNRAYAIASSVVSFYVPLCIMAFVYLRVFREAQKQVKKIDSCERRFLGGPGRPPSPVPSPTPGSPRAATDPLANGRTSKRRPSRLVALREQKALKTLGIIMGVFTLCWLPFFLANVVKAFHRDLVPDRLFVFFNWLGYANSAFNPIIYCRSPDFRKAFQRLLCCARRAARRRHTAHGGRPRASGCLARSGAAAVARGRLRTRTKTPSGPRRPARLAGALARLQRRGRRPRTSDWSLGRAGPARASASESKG

Which “Reduction of the chronotropic effect” value [1] does the source give for `CCN(CC)CC(C)N1CCN(c2ccccn2)CC1` (stereo not drawn) [Compound 13] here?
The value was “Arrhythmia”.

What about the LD50 at 168 h [2] of the same compound?
Its LD50 at 168 h is 76 mg/kg.

With `CCN(CC)CCCN1CCN(c2ccccn2)CC1` [Compound 7] as the compound, how does the inhibition at 100 µg/mL [1] read?
The inhibition at 100 µg/mL was 16%.

What about the LD50 at 168 h [2] of the same compound?
The LD50 at 168 h was 96 mg/kg.

And the Clinical symptomatology [3]?
The Clinical symptomatology was “Cyanosis, apnoea”.

Which inhibition at 100 µg/mL [1] does the source give for `O=C(CN1CCN(c2ccccn2)CC1)Nc1cccc(F)c1` [Compound 14] here?
The inhibition at 100 µg/mL was 18%.

And the LD50 at 168 h [2]?
The LD50 at 168 h was 129 mg/kg.

And the Clinical symptomatology [3]?
Its Clinical symptomatology is “Apnoea, sedation”.

Which inhibition at 100 µg/mL [1] does the source give for `c1ccc(N2CCN(CC3CCC3)CC2)nc1` [Compound 2] here?
Its inhibition at 100 µg/mL is 7%.

And the LD50 at 168 h [2]?
Its LD50 at 168 h is 67 mg/kg.

For `O=C(CN1CCN(c2ccccn2)CC1)Nc1cccc(C(F)(F)F)c1` [Compound 16], which inhibition at 100 µg/mL [1] is on record?
Its inhibition at 100 µg/mL is 18%.

And the LD50 at 168 h [2]?
Its LD50 at 168 h is 109 mg/kg.

With `c1ccc(N2CCN(CCCN3CCOCC3)CC2)nc1` [Compound 11] as the compound, how does the “Reduction of the chronotropic effect” value [1] read?
The value was “Arrhythmia”.

Which results are given for `COc1cc(CN2CCN(c3ccccn3)CC2)cc(OC)c1OC` [Compound 17]?
inhibition at 100 µg/mL [1]: 31%; LD50 at 168 h [2]: 130 mg/kg

What does the source list for `c1ccc(N2CCN(CCCN3CCCCCC3)CC2)nc1` [Compound 10]?
inhibition at 100 µg/mL [1]: 0%; LD50 at 168 h [2]: 74 mg/kg

Which results are given for `c1ccc(N2CCN(CC3CCCCC3)CC2)nc1` [Compound 3]?
inhibition at 100 µg/mL [1]: 13%; LD50 at 168 h [2]: 81 mg/kg; Clinical symptomatology [3]: Hypersensitivity, stereotypy

With `O=C(CN1CCN(c2ccccn2)CC1)Nc1cc(F)cc(F)c1` [Compound 15] as the compound, how does the inhibition at 100 µg/mL [1] read?
The inhibition at 100 µg/mL was 0%.

What does the source list for `c1ccc(N2CCN(CCCN3CCCC3)CC2)nc1` [Compound 8]?
inhibition at 100 µg/mL [1]: 20%; LD50 at 168 h [2]: 142 mg/kg

For `CC(C)N(CCN1CCN(c2ccccn2)CC1)C(C)C` [Compound 4], which inhibition at 100 µg/mL [1] is on record?
Its inhibition at 100 µg/mL is 9%.

What about the LD50 at 168 h [2] of the same compound?
Its LD50 at 168 h is 95 mg/kg.

And the Clinical symptomatology [3]?
The Clinical symptomatology was “Cyanosis, starts”.

Which inhibition at 100 µg/mL [1] does the source give for `c1ccc(N2CCN(CC3CC3)CC2)nc1` [Compound 1a, 1-(2-pyridyl) 4-cyclopropylmethyl piperazine] here?
The inhibition at 100 µg/mL was 24%.

And the Emax ([4]; guinea pig, read-out: α (intrinsic activity))?
The Emax was 60 ± 30%.

And the EC50 ([4]; negative log. of the molar concentration producing 50% of maximum action, stimulated at 90 to 120 beats/min, read-out: pD2 (converted))?
Its EC50 is 20.9 µM.

And the other parameters measured ([5]; 0.5 mg·kg^-1 i.v.)?
The other parameters measured was “did not vary significantly”.

And the “time of the acme of the action after injection” value ([5]; 0.5 mg·kg^-1 i.v.)?
The value was 45 min.

What about the “decrease of left ventricular telediastolic pressure” value ([5]; 0.5 mg·kg^-1 i.v., significant) of the same compound?
Its value is 28%.

And the “D.A.O. (aortic flow rate) modification” value ([5]; 1 mg·kg^-1 i.v.)?
The value was “+23%”.

What about the “V.E.S. (systolic ejection volume) modification” value ([5]; 1 mg·kg^-1 i.v.) of the same compound?
The value was “+13%”.

What about the “time following injection during which dP/dt increased significantly” value ([5]; 1 mg·kg^-1 i.v.) of the same compound?
The value was 90 min.

And the “dP/dt+ (first derivative of the left ventricular pressure) modification” value ([5]; 1 mg·kg^-1 i.v., significant)?
Its value is “+31%”.

What about the “P.Ao m (average aortic pressure) modification” value [6, 8] of the same compound?
The value was “+11%”.

And the “PtdVG (left ventricular telediastolic pressure) modification” value [6, 8]?
Its value is -35%.

What about the “P.Ao m (average aortic pressure) modification” value ([6]; 2 mg·kg^-1 i.v., closed thorax) of the same compound?
The value was “+8%”.

And the “PtdVG (left ventricular telediastolic pressure) modification” value ([6]; 2 mg·kg^-1 i.v., closed thorax)?
Its value is -31%.

And the “dP/dt+ (first derivative of the left ventricular pressure) modification” value ([6]; 2 mg·kg^-1 i.v., closed thorax)?
Its value is “+28%”.

And the respiratory analeptic effect ([6]; anaesthetized dogs, i.v.)?
The respiratory analeptic effect was “appreciable and durable respiratory analeptic effect”.

What about the “duration of the positive inotropic effect” value ([6]; i.v., closed thorax) of the same compound?
Its value is “exceeds three”.

What about the “dose at which the acme of the positive inotropic effect appeared” value ([6]; i.v., closed thorax, increasing the dose did not increase the effect) of the same compound?
Its value is 0.5 mg/kg.

What about the “increase of the dP/dt+” value ([7]; 1 mg.kg^-1 intravenously) of the same compound?
The value was 136%.

And the “PIVG Syst. (left intraventricular pressure) modification” value ([7]; 5 mg·kg^-1 p.o.)?
The value was “+15%”.

What about the “D.A.O. (aortic flow rate) modification” value ([7]; 10 mg·kg^-1 p.o.) of the same compound?
The value was “+27%”.

And the “F.C. (heartbeat rate, cardiac frequency) modification” value ([7]; 10 mg·kg^-1 p.o.)?
The value was “+45%”.

What about the “PIVG Syst. (left intraventricular pressure) modification” value ([7]; 10 mg·kg^-1 p.o.) of the same compound?
The value was “+26%”.

What about the “dP/dt+ (first derivative of the left ventricular pressure) modification” value ([7]; 10 mg·kg^-1 p.o.) of the same compound?
Its value is “+55%”.

And the “increase of dP/dt+/P” value ([7]; 5 and 10 mg.kg^-1 orally (results approximately similar for both doses))?
Its value is 32%.

What about the LD50 at 168 h [2] of the same compound?
The LD50 at 168 h was 47 mg/kg.

Which “Reduction of the chronotropic effect” value [1] does the source give for `c1ccc(N2CCN(CCN3CCCCCC3)CC2)nc1` [Compound 6] here?
Its value is “Arrhythmia”.

What about the LD50 at 168 h [2] of the same compound?
Its LD50 at 168 h is 84 mg/kg.

With `Clc1c(CN2CCN(c3ccccn3)CC2)ccc2c1OCO2` [Compound 18] as the compound, how does the inhibition at 100 µg/mL [1] read?
The inhibition at 100 µg/mL was 11%.

Which results are given for `CC1CN(CCCN2CCN(c3ccccn3)CC2)CC(C)O1` (stereo not drawn) [Compound 12]?
inhibition at 100 µg/mL [1]: 0%; LD50 at 168 h [2]: 149 mg/kg

— patent US4673675A, “1-(2-pyridyl) 4-cycloalkylmethyl piperazines having cardiotropic activity” (Innothera, priority 1984, dated 1987)
